Laboratory results reported in patent US20230149448A1, “METHODS FOR PREVENTING AND TREATING R[…] MODIFICATION OF VIRUS RECEPTOR BINDING DOMAINS USING […]” (priority 2021, published 2023).

Assays:
[1] = target: receptor binding domain (RBD) of Spike S protein (Severe acute respiratory syndrome coronavirus 2, UniProt P0DTC2); test: Exposure of Spike protein, capture/detection by RBD-specific antibodies (96 well, HRP); design: species or system SARS-CoV-2; settings: 150 ppm, 5 minutes exposure
SARS-CoV-2 [2] = assay type: cell-based
SARS-CoV-2 [3] = assay type: cell-based; remark: listed apart in the source
human subjects = test: Safety of microaerosolized HOCl inhalation in human volunteers; assay type: in vivo; settings: dense microaerosols for 2-5 minutes, 400 episodes
Protocol: The safety of exposure of human subjects to microaerosolized pure stable HOCl of the present disclosure via the respiratory route was evaluated.
Human volunteers were exposed to dense microaerosols of HOCl for periods of 2-5 minutes and submitted subjective reports of the outcomes of these experiences. Data on a total of 400 such episodes were collected under medical supervision.

Structure (SMILES) | inhibition of chromophore formation (S protein remaining bound by RBD specific antibodies) [1] | average reduction in titer (SARS-CoV-2 [2]) | average reductions in infectivity (SARS-CoV-2 [3]) | serious adverse effects (human subjects) | minor complaints (nose irritation, slight impact on ease of deep breathing) (human subjects; disappeared upon cessation of exposure) | average reductions in infectivity (positive control) (SARS-CoV-2 [3])
OCl [HOCl, hypochlorous acid] | complete inhibition | 99.96% | 99.92% | No serious adverse effects | approximately 3% | 
CCO [45% ethanol, ethanol, reference compound] |  |  |  |  |  | 99.98%
OBr [HOBr, hypobromous acid] | complete inhibition |  |  |  |  | 
